Experiment [1] concerns the target T1, rat PrRP receptor (Rattus norvegicus, UniProt Q64121).
T1 construct: host or cells: RC-4B/C rat pituitary cell line
T1 sequence (Q64121 1-370): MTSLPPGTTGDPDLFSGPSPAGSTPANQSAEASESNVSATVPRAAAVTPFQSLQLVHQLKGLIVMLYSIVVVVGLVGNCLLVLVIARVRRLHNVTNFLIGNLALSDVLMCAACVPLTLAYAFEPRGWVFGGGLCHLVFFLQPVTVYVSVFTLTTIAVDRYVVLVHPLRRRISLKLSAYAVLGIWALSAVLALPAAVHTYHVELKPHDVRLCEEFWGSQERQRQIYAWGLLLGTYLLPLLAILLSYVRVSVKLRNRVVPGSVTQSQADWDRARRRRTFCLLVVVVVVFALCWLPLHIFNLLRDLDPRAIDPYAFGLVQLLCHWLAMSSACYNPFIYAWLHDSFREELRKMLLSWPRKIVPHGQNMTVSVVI
Put plainly: Competitive binding in RC-4B/C rat pituitary cells (125I-rat PrRP31). Conditions: affinity relative to PrRP31. As for the experimental part:
(§1) Competitive binding experiments were performed according to Motulsky and Neubig (Motulsky, A., et al., “Analyzing radioligand binding data,” Curr Protoc Neurosci, Chapter 7, Unit 7.5, 2002). Binding experiments were conducted with rat pituitary cells, and with Chinese Hamster Ovary (CHO) cells as follows:
The rat pituitary cell line RC-4B/C (ATCC, Manassas, USA) was grown on 24-well plates which had their bottom coated with polyethyleneimine. The cells were grown to the optimal density of 300-450 thousand cells per well. The following agents were used for the experiment: binding buffer (20 mmol·l^−1 HEPES, Ph 7.4; 118 mmol·l^−1 NaCl, 4.7 mmol·l^−1 KCl, 5 mmol·l^−1 MgCl2, 5.5 mmol·l^−1 glucose, 1 mg/ml BSA, 0.1 BPTI), unlabeled analogs of PrRP (i.e. the analog being tested) at a final concentration between 10^−11 to 10^−4 mol·l^−1, and rat ^125I-PrRP31 (labeled with radioactive Iodine-125) at a final concentration of […] (Maixnerová et al., 2011).
(§2) Plates were incubated for 60 minutes at room temperature. After incubation, the cells were solubilized in 0.1 mol/l solution of NaOH, and the radioactivity bound to the cells was counted using a γ-counter. The experiments were performed in duplicate, and repeated at least three times.
(§3) Graph Pad Prism Software (San Diego, Calif., USA) was used for evaluating the competitive binding experiments. Nonlinear regression was performed using a onsite binding model.

Experiment [2] concerns the target T2, human PrRP receptor GPR10 (Homo sapiens, UniProt P49683).
T2 construct: host or cells: CHO cells
T2 sequence (P49683 1-370): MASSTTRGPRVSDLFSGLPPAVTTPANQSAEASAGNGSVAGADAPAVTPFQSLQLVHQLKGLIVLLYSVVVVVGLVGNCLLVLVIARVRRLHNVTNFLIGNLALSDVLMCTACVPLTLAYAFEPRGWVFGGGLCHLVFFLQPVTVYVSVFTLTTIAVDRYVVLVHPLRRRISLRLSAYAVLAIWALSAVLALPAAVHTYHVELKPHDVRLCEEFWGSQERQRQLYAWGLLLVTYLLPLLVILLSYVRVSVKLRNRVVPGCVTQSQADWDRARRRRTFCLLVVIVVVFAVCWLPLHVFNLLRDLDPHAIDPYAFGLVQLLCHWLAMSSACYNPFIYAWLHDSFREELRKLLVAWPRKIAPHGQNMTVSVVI
Put plainly: Competitive binding in CHO cells transfected with human GPR10 (human 125I-PrRP31). The settings on record: affinity relative to PrRP31. As for the experimental part:
as §1
CHO cells transfected with human PrRP receptor GPR10 (Perkin Elmer, USA) were grown on 24-well plates coated with polyethyleneimine. The cells were grown to the optimal density of 40-80 thousand cells per well. The following agents were used for the experiment: binding buffer (25 mmol·l^−1 Tris, pH 7.4; 118 mmol·l^−1 NaCl, 10 mmol·l^−1 MgCl2, 10 mmol·l^−1 CaCl2, 5.5 mmol·l^−1 glucose, 0.5 mg/ml BSA), unlabeled analogs of PrRP (i.e. the analog being tested) at a final concentration between 10^−11 to 10^−4 mol·l^−1, and radiolabeled human ^125I-PrRP31 at a final concentration of 5×10^−11 mol·l^−1.
as §2, §3

Square brackets hold non-standard residues; d marks the D form. Peptide text beside a SMILES is read from it. * marks the point of attachment. 1Nal = N[C@@H](Cc1cccc2ccccc12)C(=O)O; Myristoyl = CCCCCCCCCCCCCC(=O)*; Nle = CCCC[C@H](N)C(=O)O

As for `CCCCCCCCCCCCCC(=O)N[C@@H](CO)C(=O)N[C@@H](CCCNC(=N)N)C(=O)N[C@@H](C)C(=O)N[C@@H](Cc1c[nH]cn1)C(=O)N[C@@H](CCC(N)=O)C(=O)N[C@@H](Cc1c[nH]cn1)C(=O)N[C@@H](CO)C(=O)N[C@@H](CCCC)C(=O)N[C@@H](CCC(=O)O)C(=O)N[C@H](C(=O)N[C@@H](CCCNC(=N)N)C(=O)N[C@H](C(=O)N1CCC[C@H]1C(=O)N[C@@H](CC(=O)O)C(=O)N[C@H](C(=O)N[C@@H](CC(N)=O)C(=O)N1CCC[C@H]1C(=O)N[C@@H](C)C(=O)N[C@@H](Cc1c[nH]c2ccccc12)C(=O)N[C@@H](Cc1ccc(O)cc1)C(=O)N[C@H](C(=O)NCC(=O)N[C@@H](CCCNC(=N)N)C(=O)NCC(=O)N[C@H](C(=O)N[C@@H](CCCNC(=N)N)C(=O)N1CCC[C@H]1C(=O)N[C@H](C(=O)NCC(=O)N[C@@H](CCCNC(=N)N)C(=O)N[C@@H](Cc1cccc2ccccc12)C(N)=O)C(C)C)[C@@H](C)CC)[C@@H](C)O)[C@@H](C)CC)[C@@H](C)O)[C@@H](C)O` [Analog 11] (Myristoyl-SRAHQHS[Nle]ETRTPDINPAWYTGRGIRPVGR[1Nal]-NH2), the “% of PrRP31, RC-4B/C rat pituitary cells” value in experiment [1] amounted to 124%. Further, the “% of PrRP31, GPR10 human receptor transfected in CHO cells” value (from here on “% of PrRP31 … in CHO cells”) in experiment [2] came out at 292%.

Take `CCCC[C@H](NC(=O)[C@H](CO)NC(=O)[C@H](Cc1c[nH]cn1)NC(=O)[C@H](CCC(N)=O)NC(=O)[C@H](Cc1c[nH]cn1)NC(=O)[C@H](C)NC(=O)[C@H](CCCNC(=N)N)NC(=O)[C@@H](N)CO)C(=O)N[C@@H](CCC(=O)O)C(=O)N[C@H](C(=O)N[C@@H](CCCNC(=N)N)C(=O)N[C@H](C(=O)N1CCC[C@H]1C(=O)N[C@@H](CC(=O)O)C(=O)N[C@H](C(=O)N[C@@H](CC(N)=O)C(=O)N1CCC[C@H]1C(=O)N[C@@H](C)C(=O)N[C@@H](Cc1c[nH]c2ccccc12)C(=O)N[C@@H](Cc1ccc(O)cc1)C(=O)N[C@H](C(=O)NCC(=O)N[C@@H](CCCNC(=N)N)C(=O)NCC(=O)N[C@H](C(=O)N[C@@H](CCCNC(=N)N)C(=O)N1CCC[C@H]1C(=O)N[C@H](C(=O)NCC(=O)N[C@@H](CCCNC(=N)N)C(=O)N[C@@H](Cc1cccc2ccccc12)C(N)=O)C(C)C)[C@@H](C)CC)[C@@H](C)O)[C@@H](C)CC)[C@@H](C)O)[C@@H](C)O` [Analog 10] (H-SRAHQHS[Nle]ETRTPDINPAWYTGRGIRPVGR[1Nal]-NH2): the “% of PrRP31, RC-4B/C rat pituitary cells” value in experiment [1] came out at 4.8%. Further, in experiment [2], the “% of PrRP31 … in CHO cells” value is 11%.

For `CCCC[C@H](N)C(=O)N[C@@H](CCC(=O)O)C(=O)N[C@H](C(=O)N[C@@H](CCCNC(=N)N)C(=O)N[C@H](C(=O)N1CCC[C@H]1C(=O)N[C@@H](CC(=O)O)C(=O)N[C@H](C(=O)N[C@@H](CC(N)=O)C(=O)N1CCC[C@H]1C(=O)N[C@@H](C)C(=O)N[C@@H](Cc1c[nH]c2ccccc12)C(=O)N[C@@H](Cc1ccc(O)cc1)C(=O)N[C@H](C(=O)NCC(=O)N[C@@H](CCCNC(=N)N)C(=O)NCC(=O)N[C@H](C(=O)N[C@@H](CCCNC(=N)N)C(=O)N1CCC[C@H]1C(=O)N[C@H](C(=O)NCC(=O)N[C@@H](CCCNC(=N)N)C(=O)N[C@@H](Cc1ccccc1)C(N)=O)C(C)C)[C@@H](C)CC)[C@@H](C)O)[C@@H](C)CC)[C@@H](C)O)[C@@H](C)O` [Analog 35] (H-[Nle]ETRTPDINPAWYTGRGIRPVGRF-NH2), the “% of PrRP31, RC-4B/C rat pituitary cells” value in experiment [1] is given as 168%. Further, the “% of PrRP31 … in CHO cells” value in experiment [2] is recorded as 113%.

`CCCCCCCCCCCCCC(=O)N[C@H](C(=O)N1CCC[C@H]1C(=O)N[C@@H](CC(=O)O)C(=O)N[C@H](C(=O)N[C@@H](CC(N)=O)C(=O)N1CCC[C@H]1C(=O)N[C@@H](C)C(=O)N[C@@H](Cc1c[nH]c2ccccc12)C(=O)N[C@@H](Cc1ccc(O)cc1)C(=O)N[C@@H](C)C(=O)N[C@@H](CO)C(=O)N[C@@H](CCCNC(=N)N)C(=O)N1CCC[C@H]1C(=O)N[C@@H](Cc1ccccc1)C(=O)N[C@@H](CCCNC(=N)N)C(=O)N1CCC[C@H]1C(=O)N[C@H](C(=O)NCC(=O)N[C@@H](CCCNC(=N)N)C(=O)N[C@@H](Cc1ccccc1)C(N)=O)C(C)C)[C@@H](C)CC)[C@@H](C)O` [Analog 34] (Myristoyl-TPDINPAWYASRPFRPVGRF-NH2): in experiment [1], the “% of PrRP31, RC-4B/C rat pituitary cells” value is listed as 587%. Moreover, in experiment [2], the “% of PrRP31 … in CHO cells” value was 671%.

Turning to `CCCCCCCCCCCCCC(=O)N[C@H](C(=O)N1CCC[C@H]1C(=O)N[C@@H](CC(=O)O)C(=O)N[C@H](C(=O)N[C@@H](CC(N)=O)C(=O)N1CCC[C@H]1C(=O)N[C@@H](C)C(=O)N[C@@H](Cc1c[nH]c2ccccc12)C(=O)N[C@@H](Cc1ccc(O)cc1)C(=O)N[C@H](C(=O)NCC(=O)N[C@@H](CCCNC(=N)N)C(=O)NCC(=O)N[C@@H](C)C(=O)N[C@@H](CCCNC(=N)N)C(=O)N1CCC[C@H]1C(=O)N[C@@H](Cc1ccccc1)C(=O)NCC(=O)N[C@@H](CCCNC(=N)N)C(=O)N[C@@H](Cc1ccccc1)C(N)=O)[C@@H](C)O)[C@@H](C)CC)[C@@H](C)O` [Analog 32] (Myristoyl-TPDINPAWYTGRGARPFGRF-NH2), in experiment [1], the “% of PrRP31, RC-4B/C rat pituitary cells” value is 68%. Also, in experiment [2], the “% of PrRP31 … in CHO cells” value is recorded as 46%.

Take `CCCC[C@H](NC(=O)[C@H](CO)NC(=O)[C@H](Cc1c[nH]cn1)NC(=O)[C@H](CCC(N)=O)NC(=O)[C@H](Cc1c[nH]cn1)NC(=O)[C@H](C)NC(=O)[C@H](CCCNC(=N)N)NC(=O)[C@@H](N)CO)C(=O)N[C@@H](CCC(=O)O)C(=O)N[C@H](C(=O)N[C@@H](CCCNC(=N)N)C(=O)N[C@H](C(=O)N1CCC[C@H]1C(=O)N[C@@H](CC(=O)O)C(=O)N[C@H](C(=O)N[C@@H](CC(N)=O)C(=O)N1CCC[C@H]1C(=O)N[C@@H](C)C(=O)N[C@@H](Cc1c[nH]c2ccccc12)C(=O)N[C@@H](Cc1ccc(O)cc1)C(=O)N[C@H](C(=O)NCC(=O)N[C@@H](CCCNC(=N)N)C(=O)NCC(=O)N[C@H](C(=O)N[C@@H](CCCNC(=N)N)C(=O)N1CCC[C@H]1C(=O)N[C@H](C(=O)NCC(=O)N[C@@H](CCCNC(=N)N)C(=O)N[C@@H](Cc1ccc(O)cc1)C(N)=O)C(C)C)[C@@H](C)CC)[C@@H](C)O)[C@@H](C)CC)[C@@H](C)O)[C@@H](C)O` [Analog 23] (H-SRAHQHS[Nle]ETRTPDINPAWYTGRGIRPVGRY-NH2): the “% of PrRP31, RC-4B/C rat pituitary cells” value in experiment [1] amounted to 152%. For the same compound, in experiment [2], the “% of PrRP31 … in CHO cells” value stood at 193%.

For `CCCCCCCCCCCCCC(=O)N[C@@H](CCC(N)=O)C(=O)N[C@@H](Cc1c[nH]cn1)C(=O)N[C@@H](CO)C(=O)N[C@@H](CCSC)C(=O)N[C@@H](CCC(=O)O)C(=O)N[C@H](C(=O)N[C@@H](CCCNC(=N)N)C(=O)N[C@H](C(=O)N1CCC[C@H]1C(=O)N[C@@H](CC(=O)O)C(=O)N[C@H](C(=O)N[C@@H](CC(N)=O)C(=O)N1CCC[C@H]1C(=O)N[C@@H](C)C(=O)N[C@@H](Cc1c[nH]c2ccccc12)C(=O)N[C@@H](Cc1ccc(O)cc1)C(=O)N[C@H](C(=O)NCC(=O)N[C@@H](CCCNC(=N)N)C(=O)NCC(=O)N[C@H](C(=O)N[C@@H](CCCNC(=N)N)C(=O)N1CCC[C@H]1C(=O)N[C@H](C(=O)NCC(=O)N[C@@H](CCCNC(=N)N)C(=O)N[C@@H](Cc1ccccc1)C(N)=O)C(C)C)[C@@H](C)CC)[C@@H](C)O)[C@@H](C)CC)[C@@H](C)O)[C@@H](C)O` [Analog 38] (Myristoyl-QHSMETRTPDINPAWYTGRGIRPVGRF-NH2), the “% of PrRP31, RC-4B/C rat pituitary cells” value in experiment [1] was 1332%. The “% of PrRP31 … in CHO cells” value in experiment [2] stood at 56%.

Source of the values: patent US10350271B2, “Lipidated peptides for lowering blood glucose” (USTAV ORGANICKE CHEMIE A BIOCHEMIE AKADEMIE VED CR, V.V.I., priority 2014, dated 2019).
